Measurements reported in ChEMBL document CHEMBL1201862, “PubChem BioAssay data set” (2004).
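Grown in 96-well plates, cells were treated for 48 hours with each compound at five concentrations. Insufficient inhibition: endpoint recorded as highest concentration tested. The concentration for 50% growth inhibition is given as GI50.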 The source made the active and inactive calls. No stated cut-off is given here; in the data, active = GI50 up to about 1.1 µM and inactive = higher.

What was measured:
Experiment in all cases: inhibition of tumour cell growth, NCI panel, 48 h
SR = system: SR
CCRF-CEM = system: CCRF-CEM
EKVX = system: EKVX
Hs-578T = system: Hs-578T
HOP-62 = system: HOP-62
CAKI-1 = system: CAKI-1
KM12 = system: KM12
MDA-N = system: MDA-N
K562 = system: K562
A498 = system: A498
MDA-MB-231 = system: MDA-MB-231
SF-268 = system: SF-268
SF-295 = system: SF-295
SNB-19 = system: SNB-19
NCI-H23 = system: NCI-H23
MDA-MB-435 = system: MDA-MB-435
OVCAR-5 = system: OVCAR-5
RXF 393 = system: RXF 393
A549 = system: A549
NCI-H226 = system: NCI-H226
MCF7 = system: MCF7
NCI-H522 = system: NCI-H522
NCI/ADR-RES = system: NCI/ADR-RES
SW-620 = system: SW-620
HL-60 = system: HL-60
Malme-3M = system: Malme-3M
ACHN = system: ACHN
786-0 = system: 786-0
M14 = system: M14
HCT-116 = system: HCT-116
OVCAR-3 = system: OVCAR-3
HCC 2998 = system: HCC 2998
SK-MEL-28 = system: SK-MEL-28
UACC-257 = system: UACC-257
LOX IMVI = system: LOX IMVI
BT-549 = system: BT-549
U-251 = system: U-251
TK-10 = system: TK-10
PC-3 = system: PC-3
DU-145 = system: DU-145
COLO 205 = system: COLO 205
OVCAR-4 = system: OVCAR-4
SK-OV-3 = system: SK-OV-3
HT-29 = system: HT-29
SNB-75 = system: SNB-75
UACC-62 = system: UACC-62
RPMI-8226 = system: RPMI-8226
NCI-H460 = system: NCI-H460
HOP-92 = system: HOP-92
IGROV-1 = system: IGROV-1
OVCAR-8 = system: OVCAR-8
HCT-15 = system: HCT-15
SN12C = system: SN12C
T47D = system: T47D
SK-MEL-2 = system: SK-MEL-2
UO-31 = system: UO-31
SK-MEL-5 = system: SK-MEL-5
SF-539 = system: SF-539
MOLT-4 = system: MOLT-4

## Oc1ccc2ccccc2c1-c1c(Nc2ccccc2)ccc2ccccc12
SR
  GI50: 16 µM (inactive)
CCRF-CEM
  GI50: 16.2 µM (inactive)
EKVX
  GI50: 16.9 µM (inactive)
Hs-578T
  GI50: 19.9 µM (inactive)
HOP-62
  GI50: 16.1 µM (inactive)
CAKI-1
  GI50: 14.9 µM (inactive)
KM12
  GI50: 17.9 µM (inactive)
MDA-N
  GI50: 6.22 µM (inactive)
K562
  GI50: 13.7 µM (inactive)
A498
  GI50: 18.1 µM (inactive)
MDA-MB-231
  GI50: 0.498 µM (active)
SF-268
  GI50: 16.7 µM (inactive)
SF-295
  GI50: 16.8 µM (inactive)
SNB-19
  GI50: 18.5 µM (inactive)
NCI-H23
  GI50: 15.6 µM (inactive)
MDA-MB-435
  GI50: 6.34 µM (inactive)
OVCAR-5
  GI50: 16.3 µM (inactive)
RXF 393
  GI50: 17.2 µM (inactive)
A549
  GI50: 18.5 µM (inactive)
NCI-H226
  GI50: 21 µM (inactive)
MCF7
  GI50: 13 µM (inactive)
NCI-H522
  GI50: 15.8 µM (inactive)
NCI/ADR-RES
  GI50: > 34.7 µM (inactive)
SW-620
  GI50: 11.4 µM (inactive)
HL-60
  GI50: 19.5 µM (inactive)
Malme-3M
  GI50: 8.53 µM (inactive)
ACHN
  GI50: 19.9 µM (inactive)
786-0
  GI50: 17.8 µM (inactive)
M14
  GI50: 11.7 µM (inactive)
HCT-116
  GI50: 11.6 µM (inactive)
OVCAR-3
  GI50: 9.4 µM (inactive)
HCC 2998
  GI50: 14 µM (inactive)
SK-MEL-28
  GI50: 13.9 µM (inactive)
UACC-257
  GI50: 18.9 µM (inactive)
LOX IMVI
  GI50: 19.4 µM (inactive)
BT-549
  GI50: 16.3 µM (inactive)
U-251
  GI50: 21.8 µM (inactive)
TK-10
  GI50: 16.9 µM (inactive)
PC-3
  GI50: 18.4 µM (inactive)
DU-145
  GI50: 17.3 µM (inactive)
COLO 205
  GI50: 19.9 µM (inactive)
OVCAR-4
  GI50: 12.3 µM (inactive)
SK-OV-3
  GI50: 6.08 µM (inactive)
HT-29
  GI50: 33.7 µM (inactive)
SNB-75
  GI50: 16.1 µM (inactive)
UACC-62
  GI50: 14.9 µM (inactive)
RPMI-8226
  GI50: 17.8 µM (inactive)
NCI-H460
  GI50: 15.4 µM (inactive)
HOP-92
  GI50: 1.32 µM (inactive)
IGROV-1
  GI50: 5.73 µM (inactive)
OVCAR-8
  GI50: 16.6 µM (inactive)
HCT-15
  GI50: > 38 µM
SN12C
  GI50: 27 µM (inactive)
T47D
  GI50: 18.8 µM (inactive)
SK-MEL-2
  GI50: 17.2 µM (inactive)
UO-31
  GI50: 15.7 µM (inactive)
SK-MEL-5
  GI50: 13.6 µM (inactive)
SF-539
  GI50: 14 µM (inactive)
MOLT-4
  GI50: 17.7 µM (inactive)

## CC(=O)NNc1nc(C)c(C(/C=C/c2ccccc2O)=N/NC(=O)c2ccncc2)s1
SR
  GI50: > 100 µM (inactive)
CCRF-CEM
  GI50: > 100 µM (inactive)
EKVX
  GI50: > 100 µM (inactive)
Hs-578T
  GI50: > 100 µM (inactive)
HOP-62
  GI50: > 100 µM (inactive)
CAKI-1
  GI50: > 100 µM (inactive)
KM12
  GI50: > 100 µM (inactive)
MDA-N
  GI50: > 100 µM (inactive)
A498
  GI50: > 100 µM (inactive)
MDA-MB-231
  GI50: > 100 µM (inactive)
SF-268
  GI50: > 100 µM (inactive)
SF-295
  GI50: > 100 µM (inactive)
SNB-19
  GI50: > 100 µM (inactive)
NCI-H23
  GI50: > 100 µM (inactive)
MDA-MB-435
  GI50: > 100 µM (inactive)
OVCAR-5
  GI50: > 100 µM (inactive)
RXF 393
  GI50: > 100 µM (inactive)
A549
  GI50: > 100 µM (inactive)
NCI-H226
  GI50: > 100 µM (inactive)
MCF7
  GI50: > 100 µM (inactive)
NCI-H522
  GI50: > 100 µM (inactive)
NCI/ADR-RES
  GI50: > 100 µM (inactive)
SW-620
  GI50: > 100 µM (inactive)
HL-60
  GI50: > 100 µM (inactive)
Malme-3M
  GI50: > 100 µM (inactive)
ACHN
  GI50: > 100 µM (inactive)
786-0
  GI50: > 100 µM (inactive)
M14
  GI50: > 100 µM (inactive)
HCT-116
  GI50: > 100 µM (inactive)
OVCAR-3
  GI50: > 100 µM (inactive)
HCC 2998
  GI50: > 100 µM (inactive)
SK-MEL-28
  GI50: > 100 µM (inactive)
UACC-257
  GI50: > 100 µM (inactive)
LOX IMVI
  GI50: > 100 µM (inactive)
BT-549
  GI50: > 100 µM (inactive)
U-251
  GI50: > 100 µM (inactive)
TK-10
  GI50: > 100 µM (inactive)
PC-3
  GI50: > 100 µM (inactive)
DU-145
  GI50: > 100 µM (inactive)
COLO 205
  GI50: > 100 µM (inactive)
OVCAR-4
  GI50: > 100 µM (inactive)
SK-OV-3
  GI50: > 100 µM (inactive)
HT-29
  GI50: > 100 µM (inactive)
SNB-75
  GI50: > 100 µM (inactive)
UACC-62
  GI50: > 100 µM (inactive)
RPMI-8226
  GI50: > 100 µM (inactive)
NCI-H460
  GI50: > 100 µM (inactive)
HOP-92
  GI50: > 100 µM (inactive)
IGROV-1
  GI50: > 100 µM (inactive)
OVCAR-8
  GI50: > 100 µM (inactive)
HCT-15
  GI50: > 100 µM
SN12C
  GI50: > 100 µM (inactive)
T47D
  GI50: > 100 µM (inactive)
SK-MEL-2
  GI50: > 100 µM (inactive)
UO-31
  GI50: > 100 µM (inactive)
SK-MEL-5
  GI50: > 100 µM (inactive)
SF-539
  GI50: > 100 µM (inactive)
MOLT-4
  GI50: > 100 µM (inactive)
